According to patent publication US20250313563A1, “GLYCOGEN SYNTHASE KINASE 3 INHIBITORS AND USES THEREOF” (The Broad Institute, Inc., priority 2022, published 2025):
Like-named read-outs stand apart in the source and are kept apart here.

Tests used:
[1] = target: GSK3α (GST-full length GSK3α) (Homo sapiens (Human), UniProt P49840); assay: GSK3α TR-FRET kinase assay; format: biochemical
Description: (§1) TR-FRET Assay: The assay was performed in a white, 384 well, low volume, flat bottom plate (Grenier). After a 30 minute preincubation in assay buffer with the indicated concentration of compound, the kinase activity was initiated by the addition of the substrates. 1 nM GSK3α (GST-full length GSK3α [SignalChem G08-10G]) or 1 nM GSK3b (GST-full length GSK3b: [SignalChem G08-9G]) were then incubated at ambient temperature for 100 minutes in 10 μL of 50 mM Tris, pH 7.5, 20 mM MgCl2, 0.05 mM DTT, 100 μg/mL BSA and 1% DMSO, with 200 nM biotinylated peptide substrate (biotinylated and S645 phosphorylated glycogen synthase 631-650) and either 4 μM ATP (GSK3α, Table 16) or 2 μM ATP (GSK3b, Table 16) or 1 mM ATP (Table 17). The kinase activity was quenched with 2 μL of 250 mM EDTA. A 10 μL volume of 40 nM Strepavidin-d2, 2 nM Tb^2+-pSer641 antibody in TR-FRET Detection Buffer (Invitrogen) was then added. After 60 min at room temperature the plate was read on Envision plate reader using Ex: 340 nm, Em: 615 nm and […]. The normalized 665/615 Signal ratio versus log compound concentration was analyzed by XLFIT to yield IC50 values.

[2] = target: GSK3b (GST-full length GSK3b) (Homo sapiens (Human), UniProt P49841); assay: GSK3b TR-FRET kinase assay; format: biochemical
Description: as §1

[3] = 1 nM GSK3α, 4 μM ATP, 30 minute preincubation, geometric mean, read-out: GSK3-A TR-FRET BIOCHEMICAL (TR-FRET), GMean, IC50
[4] = 1 nM GSK3b, 2 μM ATP, 30 minute preincubation, geometric mean, read-out: GSK3-B TR-FRET BIOCHEMICAL (TR-FRET), GMean, IC50
[5] = 1 nM GSK3α, 4 μM ATP, 30 minute preincubation, Table 16, read-out: GSK3-A TR-FRET BIOCHEMICAL (TR-FRET), IC50
[6] = 1 nM GSK3b, 2 μM ATP, 30 minute preincubation, Table 16, read-out: GSK3-B TR-FRET BIOCHEMICAL (TR-FRET), IC50
[7] = GSK3-A (TR-FRET 1 mM ATP), GMean, IC50, 1 mM ATP, geometric mean
[8] = GSK3-B (TR-FRET 1 mM ATP), GMean, IC50, 1 mM ATP, geometric mean
[9] = 1 nM GSK3α, 4 μM ATP, 30 minute preincubation, Table 16, read-out: GSK3-A TR-FRET BIOCHEMICAL (TR-FRET)
[10] = 1 nM GSK3b, 2 μM ATP, 30 minute preincubation, Table 16, read-out: GSK3-B TR-FRET BIOCHEMICAL (TR-FRET)
[11] = read-out: GSK3-A (TR-FRET 1 mM ATP), GMean, IC50, 1 mM ATP, geometric mean
[12] = read-out: GSK3-B (TR-FRET 1 mM ATP), GMean, IC50, 1 mM ATP, geometric mean
[13] = 1 nM GSK3b, 2 μM ATP, 30 minute preincubation, read-out: GSK3-B TR-FRET BIOCHEMICAL (TR-FRET), IC50

GSK3b (GST-full length GSK3b), sequence (P49841 whole entry): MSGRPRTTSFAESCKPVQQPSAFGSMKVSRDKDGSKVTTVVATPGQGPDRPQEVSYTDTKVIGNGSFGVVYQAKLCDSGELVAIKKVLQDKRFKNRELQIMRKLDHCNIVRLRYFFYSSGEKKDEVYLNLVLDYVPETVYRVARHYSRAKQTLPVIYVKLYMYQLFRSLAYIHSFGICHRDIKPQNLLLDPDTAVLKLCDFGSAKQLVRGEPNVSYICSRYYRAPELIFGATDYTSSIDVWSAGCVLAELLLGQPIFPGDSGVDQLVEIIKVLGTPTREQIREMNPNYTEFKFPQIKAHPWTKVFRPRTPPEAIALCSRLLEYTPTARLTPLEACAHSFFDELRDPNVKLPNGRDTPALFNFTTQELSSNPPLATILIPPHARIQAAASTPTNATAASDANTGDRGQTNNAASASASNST
GSK3α (GST-full length GSK3α), sequence (P49840 whole entry): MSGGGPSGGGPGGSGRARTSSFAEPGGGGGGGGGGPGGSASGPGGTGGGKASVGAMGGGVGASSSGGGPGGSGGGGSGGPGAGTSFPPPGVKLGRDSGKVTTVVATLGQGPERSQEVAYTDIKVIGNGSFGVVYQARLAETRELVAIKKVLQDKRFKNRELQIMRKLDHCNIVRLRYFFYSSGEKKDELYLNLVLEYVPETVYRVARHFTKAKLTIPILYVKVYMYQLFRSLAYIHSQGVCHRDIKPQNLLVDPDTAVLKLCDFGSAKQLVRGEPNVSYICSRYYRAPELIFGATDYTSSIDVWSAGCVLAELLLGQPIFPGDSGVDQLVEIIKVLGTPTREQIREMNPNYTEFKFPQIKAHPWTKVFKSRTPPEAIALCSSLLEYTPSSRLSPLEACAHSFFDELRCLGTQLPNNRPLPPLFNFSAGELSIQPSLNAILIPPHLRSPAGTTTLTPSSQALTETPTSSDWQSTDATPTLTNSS

## CCC1(c2cccc(C(F)(F)F)c2)C2=C(CC(C)CC2=O)Nc2n[nH]cc21 (mixture of isomers) [Compound 801397]
[1]; [3]
  IC50: ≤ 0.1 µM
[2]; [4]
  IC50: 0.1 to 1 µM

## CCC1(c2cccc(Br)c2)C2=C(CC(C)(C)C(F)C2=O)Nc2n[nH]cc21 (mixture of isomers) [Compound 826764]
[1]; [3]
  IC50: ≤ 0.1 µM
[2]; [4]
  IC50: 0.1 to 1 µM

## CCC1(c2cccc(N3CCCC3C)c2)C2=C(CC(C)(C)CC2=O)Nc2n[nH]cc21 (mixture of isomers) [Compound 885188]
[1]; [5]
  IC50: 0.1 to 1 µM
[2]; [6]
  IC50: 0.1 to 1 µM

## CCC1(c2cccc(N3CCCCC3C)c2)C2=C(CC(C)(C)CC2=O)Nc2n[nH]cc21 (mixture of isomers) [Compound 885217]
[1]; [5]
  IC50: 0.1 to 1 µM
[2]; [6]
  IC50: 0.1 to 1 µM

## CCC1(c2cccc(-c3ccncc3C)c2)C2=C(CC(C)(COC)NC2=O)Nc2n[nH]cc21 (mixture of isomers) [Compound 948127]
[1]; [3]
  IC50: 0.1 to 1 µM
[2]; [4]
  IC50: > 5 µM

## CCC1(c2cccc(C(F)(F)F)c2)C2=C(Nc3n[nH]cc31)C(F)C(C)(C)CC2=O (single isomer, unassigned) [Compound 837683, 4-ethyl-8-fluoro-7,7-dimethyl-4-(3-(trifluoromethyl)phenyl)-2,4,6,7,8,9-hexahydro-5H-pyrazolo[3,4-b]quinolin-5-one]
[1]; [3]
  IC50: ≤ 0.1 µM
[1]; [7]
  IC50: 0.1 to 1 µM
[2]; [4]
  IC50: 0.1 to 1 µM
[2]; [8]
  IC50: > 5 µM

## CCC1(c2cccc(C(F)(F)F)c2)C2=C(Nc3n[nH]cc31)C(F)C(C)(C)CC2=O (single isomer, unassigned) [Compound 837753, 4-ethyl-8-fluoro-7,7-dimethyl-4-(3-(trifluoromethyl)phenyl)-2,4,6,7,8,9-hexahydro-5H-pyrazolo[3,4-b]quinolin-5-one]
[1]; [3]
  IC50: 0.1 to 1 µM
[1]; [7]
  IC50: > 5 µM
[2]; [4]
  IC50: > 5 µM
[2]; [8]
  IC50: > 5 µM

## CCC1(c2cccc(C(F)(F)F)c2)C2=C(Nc3n[nH]cc31)C(F)C(C)(C)CC2=O (single isomer, unassigned) [Compound 837803, 4-ethyl-8-fluoro-7,7-dimethyl-4-(3-(trifluoromethyl)phenyl)-2,4,6,7,8,9-hexahydro-5H-pyrazolo[3,4-b]quinolin-5-one]
[1]; [3]
  IC50: 1 to 5 µM
[1]; [7]
  IC50: > 5 µM
[2]; [4]
  IC50: > 5 µM
[2]; [8]
  IC50: > 5 µM

## CCC1(c2cccc(-c3cn(C)nc3C)c2)C2=C(Nc3n[nH]cc31)C(F)C(C)(C)CC2=O (single isomer, unassigned) [Compound 947650, 4-(3-(1,3-dimethyl-1H-pyrazol-4-yl)phenyl)-4-ethyl-8-fluoro-7,7-dimethyl-2,4,6,7,8,9-hexahydro-5H-pyrazolo[3,4-b]quinolin-5-one]
[1]; [9]
  IC50: ≤ 0.1 µM
[1]; [7]
  IC50: 0.1 to 1 µM
[2]; [10]
  IC50: ≤ 0.1 µM
[2]; [8]
  IC50: > 5 µM

## CCC1(c2cccc(-c3cn(C)nc3C)c2)C2=C(Nc3n[nH]cc31)C(F)C(C)(C)CC2=O (single isomer, unassigned) [Compound 947652, 4-(3-(1,3-dimethyl-1H-pyrazol-4-yl)phenyl)-4-ethyl-8-fluoro-7,7-dimethyl-2,4,6,7,8,9-hexahydro-5H-pyrazolo[3,4-b]quinolin-5-one]
[1]; [9]
  IC50: ≤ 0.1 µM
[1]; [7]
  IC50: 0.1 to 1 µM
[2]; [10]
  IC50: 0.1 to 1 µM
[2]; [8]
  IC50: > 5 µM

## CCC1(c2cccc(-c3cn(C)nc3C)c2)C2=C(Nc3n[nH]cc31)C(F)C(C)(C)CC2=O (single isomer, unassigned) [Compound 947653, 4-(3-(1,3-dimethyl-1H-pyrazol-4-yl)phenyl)-4-ethyl-8-fluoro-7,7-dimethyl-2,4,6,7,8,9-hexahydro-5H-pyrazolo[3,4-b]quinolin-5-one]
[1]; [9]
  IC50: ≤ 0.1 µM
[2]; [10]
  IC50: 0.1 to 1 µM

## CC1(C)CC(=O)C2=C(C1)Nc1n[nH]cc1[C@]21CO[C@@H](C2CC2)C1 (stereo in doubt) [Compound 913185]
[1]; [9]
  IC50: 0.1 to 1 µM
[2]; [10]
  IC50: 1 to 5 µM

## CC(C)(C)Cc1[nH]nc2c1C1(CN(C(=O)OCc3ccccc3)C1)C1=C(CC(C)(C)CC1=O)N2 [Compound 90330]
[1]; [11]
  IC50: > 5 µM
[2]; [12]
  IC50: > 5 µM

## CC(C)(C)Cc1[nH]nc2c1C1(CCN(c3ccccc3)CC1)C1=C(CC(C)(C)CC1=O)N2 [Compound 92315]
[1]; [11]
  IC50: > 5 µM
[2]; [12]
  IC50: > 5 µM

## CC(C)(C)Cc1[nH]nc2c1[C@@](C)(c1cccc(S(=O)(=O)CC3CC3)c1)C1=C(CC(C)(C)NC1=O)N2 [Compound 108006]
[1]; [11]
  IC50: > 5 µM
[2]; [12]
  IC50: > 5 µM

## CC(C)(C)Cc1[nH]nc2c1C(C)(c1cccc(S(=O)(=O)N3CCCC3)c1)C1=C(CC(C)(C)NC1=O)N2 (centres unmarked) [Compound 108791]
[1]; [11]
  IC50: 1 to 5 µM
[2]; [12]
  IC50: 0.1 to 1 µM

## CC(C)(C)Cc1[nH]nc2c1[C@@](C)(c1cccc(S(=O)(=O)N3CCCC3)c1)C1=C(CC(C)(C)NC1=O)N2 [Compound 108794]
[1]; [11]
  IC50: > 5 µM
[2]; [12]
  IC50: > 5 µM

## COc1cncc(F)c1-c1cccc([C@@]2(C)C3=C(CC(C)(C)CC3=O)Nc3n[nH]c(CC(C)(C)C)c32)c1 [Compound 108956]
[1]; [11]
  IC50: > 5 µM
[2]; [12]
  IC50: 1 to 5 µM

## CC1(C)CC2=C(C(=O)N1)[C@](C)(c1cccc(S(C)(=O)=O)c1)c1c(n[nH]c1C1CC1)N2 [Compound 114744]
[1]; [7]
  IC50: > 5 µM
[2]; [8]
  IC50: > 5 µM

## CC(C)(C)Cc1[nH]nc2c1C1(COc3ccccc31)C1=C(CC(C)(C)CC1=O)N2 (centres unmarked) [Compound 117093]
[1]; [11]
  IC50: 1 to 5 µM
[2]; [12]
  IC50: 0.1 to 1 µM

## CN1CC2(C3=C(CC(C)(C)CC3=O)Nc3n[nH]c(C4CC(F)(F)C4)c32)c2ccccc21 (centres unmarked) [Compound 119047]
[1]; [11]
  IC50: 1 to 5 µM
[2]; [12]
  IC50: 0.1 to 1 µM

## CC(C)(C)Cc1[nH]nc2c1C(C)(c1cc(S(C)(=O)=O)ccc1F)C1=C(CC(C)(C)CC1=O)N2 (centres unmarked) [Compound 125977]
[2]; [12]
  IC50: > 5 µM

## CN1CC2(C3=C(CC(C)(C)CC3=O)Nc3n[nH]c(CC(C)(C)C)c32)c2ccccc21 (centres unmarked) [Compound 125979]
[1]; [11]
  IC50: > 5 µM
[2]; [12]
  IC50: 1 to 5 µM

## CN(C)S(=O)(=O)c1cccc(C2(C)C3=C(CC(C)(C)CC3=O)Nc3n[nH]c(CC(C)(C)C)c32)c1 (centres unmarked) [Compound 126013]
[2]; [12]
  IC50: > 5 µM

## C[S+]([O-])c1cccc(C2(C)C3=C(CC(C)(C)CC3=O)Nc3n[nH]c(CC(C)(C)C)c32)c1 (centres unmarked) [Compound 126193]
[2]; [12]
  IC50: > 5 µM

## Cn1cc(-c2cccc(C3(C)C4=C(CC(C)(C)CC4=O)Nc4n[nH]c(CC(C)(C)C)c43)c2)cn1 (centres unmarked) [Compound 126394]
[1]; [11]
  IC50: > 5 µM

## Cc1ccc(S(C)(=O)=O)cc1C1(C)C2=C(CC(C)(C)CC2=O)Nc2n[nH]c(CC(C)(C)C)c21 (centres unmarked) [Compound 126398]
[2]; [12]
  IC50: > 5 µM

## CC(C)(C)Cc1[nH]nc2c1C(C)(c1cccc(N3CCOCC3)c1)C1=C(CC(C)(C)CC1=O)N2 (centres unmarked) [Compound 126399]
[2]; [12]
  IC50: > 5 µM

## CCC1(c2cccc(C3CCOCC3)c2)C2=C(CC(C)(C)CC2=O)Nc2n[nH]cc21 (centres unmarked) [Compound 791273]
[2]; [4]
  IC50: 0.1 to 1 µM

## CCC1(c2cccc(-c3ccncn3)c2)C2=C(CC(C)(C)CC2=O)Nc2n[nH]cc21 (centres unmarked) [Compound 810488]
[2]; [4]
  IC50: 0.1 to 1 µM

## CCC1(c2cccc(C(F)(F)F)c2)C2=C(CC(C)NC2=O)Nc2n[nH]cc21 (centres unmarked) [Compound 912096]
[2]; [13]
  IC50: 0.1 to 1 µM

## CCC1(c2cccc(C(F)(F)F)c2)C2=C(Nc3n[nH]cc31)C(C)N(C)C2=O (centres unmarked) [Compound 913454]
[2]; [10]
  IC50: 0.1 to 1 µM

## CC[C@@]1(c2cccc(C(F)(F)F)c2)C2=C(Nc3n[nH]cc31)[C@H](C)N(C)C2=O [Compound 913473]
[2]; [10]
  IC50: 0.1 to 1 µM

## CCC1(c2cccc(-c3cnn(C)c3)c2)C2=C(CC(C)(C)NC2=O)Nc2n[nH]c(C)c21 (centres unmarked) [Compound 944027]
[2]; [13]
  IC50: 0.1 to 1 µM

## CCC1(c2cccc(-c3ncnn3C)c2)C2=C(CC(C)(C)CC2=O)Nc2n[nH]cc21 (centres unmarked) [Compound 945472]
[2]; [10]
  IC50: 0.1 to 1 µM

## CCC1(c2cccc(N(C)c3cc(C)ccn3)c2)C2=C(CC(C)(C)CC2=O)Nc2n[nH]cc21 (centres unmarked) [Compound 945609]
[2]; [10]
  IC50: 0.1 to 1 µM

## CCC1(c2cccc(-c3c(C)nnn3C)c2)C2=C(CC(C)(C)CC2=O)Nc2n[nH]cc21 (centres unmarked) [Compound 946099]
[2]; [12]
  IC50: 0.1 to 1 µM

## CCC1(c2cccc(N3CCCCC3)c2)C2=C(CC(C)(C)NC2=O)Nc2n[nH]c(C(F)(F)F)c21 (centres unmarked) [Compound 947861]
[2]; [12]
  IC50: 0.1 to 1 µM

## CCC1(c2cccc(C(F)(F)F)c2)C2=C(CCN(c3cccc(C)c3)C2=O)Nc2n[nH]cc21 (centres unmarked) [Compound 948052]
[2]; [4]
  IC50: 0.1 to 1 µM
